Results on 58 compounds are retold here after ChEMBL document CHEMBL1145312, “Structure-activity relationships of triazolopyridine oxazole p38 inhibitors: identification of candidates for clinical development” (Bioorg Med Chem Lett, 2006).

The subject of series [1] is Monocyte. The experiment in a line: Inhibition of LPS-induced TNFalpha production in human monocytes. Type of series: functional, cell-based.
Series [2] can be described thus: Hepatocyte microsomal extraction ratio in human. Particulars: hepatic microsomes.
In series [3] the target is Mitogen-activated protein kinase 14 (Homo sapiens, UniProt Q16539). Description: Inhibition of p38alpha.
Mitogen-activated protein kinase 14, sequence (Q16539 whole entry): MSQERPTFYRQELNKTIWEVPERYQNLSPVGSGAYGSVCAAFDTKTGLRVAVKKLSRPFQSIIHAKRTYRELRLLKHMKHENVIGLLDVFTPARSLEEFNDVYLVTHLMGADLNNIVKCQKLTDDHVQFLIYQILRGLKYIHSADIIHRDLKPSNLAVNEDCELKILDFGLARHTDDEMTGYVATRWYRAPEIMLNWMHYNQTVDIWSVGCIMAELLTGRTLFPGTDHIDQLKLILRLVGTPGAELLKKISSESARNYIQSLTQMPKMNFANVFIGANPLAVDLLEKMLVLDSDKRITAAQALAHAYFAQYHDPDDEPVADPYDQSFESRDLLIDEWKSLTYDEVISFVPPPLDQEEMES
The species entered for series [4] is Homo sapiens. Description: Inhibition of LPS-induced TNFalpha production in human whole blood. Type of series: functional, organism-based.
Series [5] in a line: Hepatocyte extraction ratio in human. Type of series: ADME, cell-based. Conditions: hepatocytes.

As to `CC(C)c1nnc2ccc(-c3ocnc3-c3c(F)cc(F)cc3F)cn12`, the figures for the IC50 in series [1], in series [3] and in series [4] were 60 nM, 7.2 nM and 650 nM, respectively. In series [2], the hepatic extraction ratio was less than 0.3.
`CC(C)c1nnc2ccc(-c3ocnc3-c3ccc(Cl)c(Cl)c3)cn12`: the figures for the IC50 in series [1] and in series [3] were 148 nM and 26.4 nM, respectively.
For the compound `CC(C)c1nnc2ccc(-c3ocnc3-c3ccc(Cl)cc3Cl)cn12`, the IC50 in series [1] was 30 nM; in series [3], 8.3 nM. Besides, the hepatic extraction ratio in series [2] is less than 0.3.
`Fc1ccc(-c2ncoc2-c2ccc3nnc(C4CCC4)n3c2)cc1`: the hepatic extraction ratio in series [5] was greater than 0.5. Further, the IC50 in series [1] stood at 49 nM; in series [3], 17.7 nM.
Consider `CCNc1nnc2ccc(-c3ocnc3-c3ccccc3)cn12`, for which, in series [5], the hepatic extraction ratio was greater than 0.5. The results for the IC50 in series [1], in series [3] and in series [4] were 40 nM, 5.4 nM and 1710 nM, respectively.
With `CCN(C)c1nnc2ccc(-c3ocnc3-c3ccc(F)cc3)cn12`, the half-maximal inhibitory concentration (IC50) in series [1] stood at 34.6 nM; in series [3] it was 4.7 nM; in series [4] it was 1550 nM.
As for `CC(C)c1nnc2ccc(-c3ocnc3-c3c(F)cccc3F)cn12`, the IC50 in series [1] came out at 71.1 nM; in series [3] it was 14.6 nM. Further, the hepatic extraction ratio in series [2] is less than 0.3.
As for `CC(C)c1nnc2ccc(-c3ocnc3-c3cc(Cl)ccc3F)cn12`, the IC50 in series [1] came out at 10 nM; in series [3] it was 5.1 nM; in series [4] it was 190 nM.
For `CC(C)c1nnc2ccc(-c3ocnc3-c3ccccc3Cl)cn12`, in that order: 57.4 nM, 3 nM and 937 nM.
Regarding `Fc1cc(F)c(-c2ncoc2-c2ccc3nnc(C4CC4)n3c2)cc1F`, the half-maximal inhibitory concentration (IC50) in series [1] turned out to be 40 nM; in series [3] it was 7.8 nM; in series [4], 565 nM. Besides, the hepatic extraction ratio in series [2] is less than 0.3.
As for `CC(C)Cc1nnc2ccc(-c3ocnc3-c3ccc(F)cc3)cn12`, the IC50 worked out at 70 nM in series [1] and 8.8 nM in series [3].
As for `CC(C)(C)c1nnc2ccc(-c3ocnc3-c3cc(F)ccc3F)cn12`, the IC50 in series [1] worked out at 14.1 nM; in series [3], 8.8 nM; in series [4], 220 nM. For the same compound, the hepatic extraction ratio in series [2] was less than 0.3.
Regarding `FC(F)(F)Cc1nnc2ccc(-c3ocnc3-c3ccccc3)cn12`, the hepatic extraction ratio in series [5] was greater than 0.5. The half-inhibitory concentration (IC50) in series [1] is 915 nM; in series [3] it was 83.2 nM.
With `CC(C)Nc1nnc2ccc(-c3ocnc3-c3ccc(F)cc3)cn12`, the IC50 in series [1] is 31.6 nM; in series [3], 5.5 nM.
With `Fc1ccc(-c2ncoc2-c2ccc3nnc(C4CC4)n3c2)c(F)c1`, the figures for the IC50 in series [1], in series [3] and in series [4] were 45.8 nM, 3.5 nM and 910 nM, respectively.
Regarding `Fc1ccc(-c2ncoc2-c2ccc3nnc(N4CCOCC4)n3c2)cc1`, the IC50 is 1440 nM in series [1] and 11.8 nM in series [3]. Further, the hepatic extraction ratio in series [2] was less than 0.3.
Take `FC(F)c1nnc2ccc(-c3ocnc3-c3ccccc3)cn12`: the IC50 in series [3] turned out to be 544 nM.
As to `CC1(c2nnc3ccc(-c4ocnc4-c4cc(F)c(F)cc4F)cn23)CCC1`, the half-inhibitory concentration (IC50) in series [1] came out at 10 nM; in series [3], 2.5 nM; in series [4] it was 90 nM.
`Cc1ccc(F)c(-c2ncoc2-c2ccc3nnc(C(C)C)n3c2)c1`: the hepatic extraction ratio in series [5] was greater than 0.5. Moreover, the half-inhibitory concentration (IC50) was determined as 10 nM in series [1] and 4.3 nM in series [3].
Turning to `CC(C)c1nnc2ccc(-c3ocnc3-c3cc(F)c(F)c(F)c3)cn12`, the figures for the IC50 in series [1] and in series [3] were 480 nM and 4.1 nM, respectively. In addition, in series [2], the hepatic extraction ratio was less than 0.3.
For the compound `CC(C)Oc1nnc2ccc(-c3ocnc3-c3ccc(F)cc3)cn12`, the IC50 in series [1] worked out at 470 nM; in series [3], 17.9 nM.
For `c1ccc(-c2ncoc2-c2ccc3nnc(-c4ccno4)n3c2)cc1`, in that order: greater than 2000 nM and 285 nM.
With `CCc1nnc2ccc(-c3ocnc3-c3ccc(F)cc3)cn12`, the IC50 in series [1] was 630 nM; in series [3], 21.6 nM.
As to `CC(C)c1nnc2ccc(-c3ocnc3-c3cc(F)c(F)cc3Cl)cn12`, the figures for the IC50 in series [1] and in series [3] were 54.8 nM and 5.6 nM, respectively. In series [2], the hepatic extraction ratio was less than 0.3.
As for `Fc1ccc(F)c(-c2ncoc2-c2ccc3nnc(C4CC4)n3c2)c1`, the results for the IC50 in series [1], in series [3] and in series [4] were 31.6 nM, 24 nM and 1400 nM, respectively. Also, in series [2], the hepatic extraction ratio is less than 0.3.
In the case of `Fc1ccc(F)c(-c2ncoc2-c2ccc3nnc(C4CCC4)n3c2)c1`, the IC50 in series [1] stood at 60 nM; in series [3], 9.7 nM.
For the compound `CCc1nnc2ccc(-c3ocnc3-c3ccccc3)cn12`, the hepatic extraction ratio in series [5] was greater than 0.5. The half-inhibitory concentration (IC50) in series [1] came out at 672 nM; in series [3], 54.5 nM.
`Cc1cc(-c2ncoc2-c2ccc3nnc(C(C)C)n3c2)ccc1F`: the hepatic extraction ratio in series [5] was greater than 0.5. Moreover, the IC50 came to 11.6 nM in series [1], 6.6 nM in series [3] and 260 nM in series [4].
For `CC1(c2nnc3ccc(-c4ocnc4-c4cc(F)c(F)cc4F)cn23)CC1`, the IC50 in series [1] is 28.3 nM; in series [3], 2.3 nM; in series [4] it was 263 nM. For the same compound, the hepatic extraction ratio in series [2] is less than 0.3.
In the case of `Fc1ccc(-c2ncoc2-c2ccc3nnc(Cc4ccccc4)n3c2)cc1`, the IC50 in series [1] is greater than 1000 nM; in series [3] it was 19.9 nM.
Regarding `CC1(c2nnc3ccc(-c4ocnc4-c4cc(F)ccc4F)cn23)CC1`, the figures for the IC50 in series [1], in series [3] and in series [4] were 45.8 nM, 3 nM and 385 nM, respectively. The hepatic extraction ratio in series [2] was less than 0.3.
On to `c1ccc(-c2ncoc2-c2ccc3nnc(C4CCC4)n3c2)cc1`, for which the 50% inhibitory concentration (IC50) was determined as 69.3 nM in series [1] and 16.6 nM in series [3].
In the case of `CC(C)(O)c1nnc2ccc(-c3ocnc3-c3cc(F)ccc3F)cn12`, the IC50 in series [1] came to 200 nM; in series [3] it was 25 nM; in series [4], 1400 nM.
Take `Fc1cc(F)c(-c2ncoc2-c2ccc3nnc(C4CCC4)n3c2)cc1F`: the figures for the 50% inhibitory concentration (IC50) in series [1], in series [3] and in series [4] were 50 nM, 9.1 nM and 353 nM, respectively.
With `CCN(C)c1nnc2ccc(-c3ocnc3-c3ccccc3)cn12`, in series [5], the hepatic extraction ratio is greater than 0.5. The IC50 in series [1] came out at 80 nM; in series [3] it was 9.2 nM.
With `Cc1cccc(-c2ncoc2-c2ccc3nnc(C(C)C)n3c2)c1`, the IC50 in series [1] worked out at 24.5 nM; in series [3] it was 18.3 nM.
For `CC(C)c1nnc2ccc(-c3ocnc3-c3ccc(Cl)cc3)cn12`, in that order: 70 nM and 17.7 nM.
Consider `CC(C)c1nnc2ccc(-c3ocnc3-c3cccc(Cl)c3Cl)cn12`, for which the IC50 in series [1] was 57.4 nM; in series [3], 14.5 nM. In addition, in series [2], the hepatic extraction ratio is less than 0.3.
As for `CC(C)c1nnc2ccc(-c3ocnc3-c3ccc(F)c(F)c3)cn12`, the IC50 came to 49 nM in series [1] and 22.3 nM in series [3].
In the case of `COc1ccccc1-c1nnc2ccc(-c3ocnc3-c3ccc(F)cc3)cn12`, the IC50 stood at 10 nM in series [1], 0.4 nM in series [3] and 873 nM in series [4].
Consider `CC(C)c1nnc2ccc(-c3ocnc3-c3cc(F)c(Cl)cc3F)cn12`, for which the values for the IC50 in series [1] and in series [3] were 60 nM and 24.5 nM, respectively. For the same compound, in series [2], the hepatic extraction ratio was less than 0.3.
`CCCNc1nnc2ccc(-c3ocnc3-c3ccc(F)cc3)cn12`: the IC50 in series [3] turned out to be 198 nM.
As for `CC(C)c1nnc2ccc(-c3ocnc3-c3cc(F)cc(F)c3F)cn12`, the IC50 in series [1] was 490 nM; in series [3], 83.3 nM. The hepatic extraction ratio in series [2] is less than 0.3.
`Fc1ccc(-c2ncoc2-c2ccc3nnc(C4CCC4)n3c2)c(F)c1`: in series [5], the hepatic extraction ratio is greater than 0.5. The IC50 in series [1] was 40 nM; in series [3], 3.75 nM.
As for `CC(C)(C)c1nnc2ccc(-c3ocnc3-c3ccc(F)cc3)cn12`, the IC50 in series [1] amounted to 38.7 nM; in series [3] it was 3.5 nM; in series [4] it was 470 nM. Moreover, in series [2], the hepatic extraction ratio was less than 0.3.
As to `CC(C)c1nnc2ccc(-c3ocnc3-c3ccc(F)cc3F)cn12`, the hepatic extraction ratio in series [5] was greater than 0.5. Further, the half-inhibitory concentration (IC50) in series [1] is 10 nM; in series [3], 4.6 nM; in series [4], 265 nM.
`CC(C)c1nnc2ccc(-c3ocnc3-c3cccc(F)c3)cn12`: in series [5], the hepatic extraction ratio was greater than 0.5. Moreover, the 50% inhibitory concentration (IC50) was determined as 135 nM in series [1] and 37.8 nM in series [3].
Regarding `CC1(c2nnc3ccc(-c4ocnc4-c4ccc(F)cc4F)cn23)CCC1`, the IC50 in series [1] was determined as 10 nM; in series [3] it was 1.1 nM; in series [4], 77 nM.
Take `CC(C)c1nnc2ccc(-c3ocnc3-c3ccc(Cl)c(F)c3)cn12`: the values for the IC50 in series [1] and in series [3] were 266 nM and 43.2 nM, respectively.
For `CCOc1nnc2ccc(-c3ocnc3-c3ccc(F)cc3)cn12`, in that order: 360 nM and 55.5 nM.
For `CC(C)c1nnc2ccc(-c3ocnc3-c3ccc(F)c(F)c3F)cn12`, in that order: 57.4 nM and 11.1 nM.
With `CC1(c2nnc3ccc(-c4ocnc4-c4ccc(F)cc4)cn23)CCC1`, the hepatic extraction ratio in series [5] was greater than 0.5. Moreover, the half-maximal inhibitory concentration (IC50) in series [1] was determined as 40 nM; in series [3], 14 nM.
For `Fc1ccc(-c2ncoc2-c2ccc3nncn3c2)cc1`, the IC50 in series [1] is greater than 5000 nM; in series [3], 19.5 nM. Moreover, the hepatic extraction ratio in series [2] is less than 0.3.
Turning to `Fc1ccc(-c2ncoc2-c2ccc3nnc(N4CCCC4)n3c2)cc1`, in series [5], the hepatic extraction ratio is greater than 0.5. Further, the IC50 in series [1] turned out to be 52 nM; in series [3], 15.4 nM; in series [4], 935 nM.
Take `c1ccc(-c2ncoc2-c2ccc3nnc(C4CC4)n3c2)cc1`: the hepatic extraction ratio in series [5] is greater than 0.5. The IC50 in series [1] came to 150 nM; in series [3] it was 47.2 nM.
With `CN(C)c1nnc2ccc(-c3ocnc3-c3ccc(F)cc3)cn12`, the hepatic extraction ratio in series [5] is greater than 0.5. Moreover, the IC50 in series [1] worked out at 165 nM; in series [3], 15.3 nM.
Consider `CC1(c2nnc3ccc(-c4ocnc4-c4cc(F)ccc4F)cn23)CCC1`, for which the IC50 was 10 nM in series [1] and 1.5 nM in series [3].
As to `CC(C)c1nnc2ccc(-c3ocnc3-c3ccc(F)c(Br)c3)cn12`, the IC50 in series [1] is 122 nM; in series [3] it was 8 nM. In addition, the hepatic extraction ratio in series [2] is less than 0.3.
